Tests used:
Type in all cases: cell-based
[1] = test system: E. coli-lambda lysogen; assay: Biochemical Induction Assay (BIA), modified; conditions: ability to directly or indirectly initiate DNA damage
Source text: The LL-E33288 antibiotics are active against gram-positive and gram-negative bacteria. Each of the components were also found to be active in a modification of the Biochemical Induction Assay [Elespuru, R. and Yarmolinsky, M., Environmental Mutagenesis, 1, 65-78 […]], a test which specifically measures the ability of an agent to directly or indirectly initiate DNA damage. In this assay, both LL-E33288γ1-I and LL-E33288δ1-I were active at concentrations lower than 1x10^-6 mcg/ml.
This pseudoaglycone is also active as an antitumor agent as determined in the Biochemical Induction Assay (BIA), a bacterial assay system which specifically measures the ability of an agent to directly or indirectly initiate DNA damage. The indicator organism for this test is an E. coli-lambda lysogen, genetically constructed such that a DNA damaging event results in the expression of the gene for the enzyme β-galactosidase. This enzyme can be determined qualitatively or quantitatively by biochemical assay as an indication that DNA damage has occurred.
A modified version of the quantitative liquid BIA disclosed by Elespuru, R. and Yarmolinsky, M., Environmental Mutagenesis, 1, 65 (1979) was used to evaluate these compounds.

[2] = test system: Enterobacter aerogenes; assay: Agar dilution MIC (Table II); conditions: Enterobacter aerogenes IO 83-44; inoculum 1 to 5 x 10^4 CFU; about 18 hours, 35°C
Experimental: (§1) The in vitro antibacterial activity of dihydro LL-E33288gamma l-I was determined against a spectrum of gram-positive and gram-negative bacteria by a standard agar dilution method. Mueller-Hinton agar containing two-fold decreasing concentrations of the antibiotics was poured into petri plates. The agar surfaces were inoculated with 1 to 5 x 10^4 colony forming units of bacteria by means of a Steers replicating device.

[3] = test system: Acinetobacter sp; assay: Agar dilution MIC (Table II); conditions: inoculum 1 to 5 x 10^4 CFU, about 18 hours, 35°C
Experimental: as §1

[4] = test system: Morganella morganii; assay: Agar dilution MIC (Table II); conditions: Morganella morganii IO 83-18; inoculum 1 to 5 x 10^4 CFU; about 18 hours, 35°C
Experimental: as §1

[5] = test system: Citrobacter freundii; assay: Agar dilution MIC (Table II); conditions: Citrobacter freundii IO 83-13; inoculum 1 to 5 x 10^4 CFU; about 18 hours, 35°C
Experimental: as §1

[6] = test system: Enterobacter cloacae; assay: Agar dilution MIC (Table II); conditions: Enterobacter cloacae CMC 84-4; inoculum 1 to 5 x 10^4 CFU; about 18 hours, 35°C
Experimental: as §1

[7] = test system: Streptococcus faecalis; assay: Agar dilution MIC (Table II); conditions: inoculum 1 to 5 x 10^4 CFU, about 18 hours, 35°C
Experimental: as §1

[8] = test system: Providencia stuartii; assay: Agar dilution MIC (Table II); conditions: Providencia stuartii CMC 83-82; inoculum 1 to 5 x 10^4 CFU; about 18 hours, 35°C
Experimental: as §1

[9] = test system: Staphylococcus aureus; assay: Agar dilution MIC (Table II); conditions: inoculum 1 to 5 x 10^4 CFU, about 18 hours, 35°C
Experimental: as §1

[10] = test system: Klebsiella pneumoniae; assay: Agar dilution MIC (Table II); conditions: inoculum 1 to 5 x 10^4 CFU, about 18 hours, 35°C
Experimental: as §1

[11] = test system: Pseudomonas aeruginosa; assay: Agar dilution MIC (Table II); conditions: inoculum 1 to 5 x 10^4 CFU, about 18 hours, 35°C
Experimental: as §1

[12] = test system: Serratia marcescens; assay: Agar dilution MIC (Table II); conditions: inoculum 1 to 5 x 10^4 CFU, about 18 hours, 35°C
Experimental: as §1

[13] = test system: Staphylococcus epidermidis; assay: Agar dilution MIC (Table II); conditions: inoculum 1 to 5 x 10^4 CFU, about 18 hours, 35°C
Experimental: as §1

[14] = test system: Citrobacter diversus; assay: Agar dilution MIC (Table II); conditions: Citrobacter diversus K-82-24; inoculum 1 to 5 x 10^4 CFU; about 18 hours, 35°C
Experimental: as §1

[15] = test system: Escherichia coli; assay: Agar dilution MIC (Table II); conditions: inoculum 1 to 5 x 10^4 CFU, about 18 hours, 35°C
Experimental: as §1

In the case of `CCN[C@H]1CO[C@@H](O[C@H]2[C@H](O[C@H]3C#CC=CC#C[C@@]4(O)CC(=O)C(NC(=O)OC)=C3/C4=C\CSSSC)O[C@H](C)[C@@H](NO[C@H]3C[C@H](O)[C@H](SC(=O)c4c(C)c(I)c(O[C@@H]5O[C@@H](C)[C@H](O)[C@@H](OC)[C@H]5O)c(OC)c4OC)[C@@H](C)O3)[C@@H]2O)C[C@@H]1OC` (stereo in doubt) [LL-E33288γ1-I], the active at concentrations [1] is reported as “lower than 1x10^-6 mcg/ml”.

For “Dihydro-LL-E33288γ1-I [Dihydro-LL-E33288gamma1-I]”, the “Minimal Inhibitory Concentration” value [2] was 2 µg/mL, the “Minimal Inhibitory Concentration” value ([3]; Acinetobacter sp CMC 83-89) was 2 µg/mL and the “Minimal Inhibitory Concentration” value ([3]; Acinetobacter sp IO 83-49) was greater than 2 µg/mL. For the same compound, the “Minimal Inhibitory Concentration” value [4] was 1 µg/mL, the “Minimal Inhibitory Concentration” value [5] was 2 µg/mL and the “Minimal Inhibitory Concentration” value [6] was 2 µg/mL. For the same compound, the “Minimal Inhibitory Concentration” value ([7]; Streptococcus faecalis ATCC 29212) was 0.001 µg/mL, the “Minimal Inhibitory Concentration” value ([7]; Streptococcus faecalis CMC 83-53) was 0.015 µg/mL and the “Minimal Inhibitory Concentration” value ([7]; Streptococcus faecalis IO 83-28) was 0.015 µg/mL. The “Minimal Inhibitory Concentration” value [8] was 2 µg/mL, the “Minimal Inhibitory Concentration” value ([9]; Staphylococcus aureus ATCC 25923) was 0.06 µg/mL and the “Minimal Inhibitory Concentration” value ([9]; Staphylococcus aureus SSC 82-20) was 0.06 µg/mL. The “Minimal Inhibitory Concentration” value ([9]; Staphylococcus aureus SSC 82-21) was 0.004 µg/mL, the “Minimal Inhibitory Concentration” value ([9]; Staphylococcus aureus SSC 82-23) was 0.008 µg/mL and the “Minimal Inhibitory Concentration” value ([9]; Staphylococcus aureus SSC 82-24) was 0.002 µg/mL. For the same compound, the “Minimal Inhibitory Concentration” value ([9]; Staphylococcus aureus SSC 82-54) was 0.06 µg/mL, the “Minimal Inhibitory Concentration” value ([9]; Staphylococcus aureus Smith(MP)) was 0.004 µg/mL and the “Minimal Inhibitory Concentration” value ([10]; Klebsiella pneumoniae AD(MP)) was 1 µg/mL. The “Minimal Inhibitory Concentration” value ([10]; Klebsiella pneumoniae CMC 84-5) was greater than 2 µg/mL, the “Minimal Inhibitory Concentration” value ([11]; Pseudomonas aeruginosa 12-4-4(MP)) was 2 µg/mL and the “Minimal Inhibitory Concentration” value ([11]; Pseudomonas aeruginosa ATCC 27853) was 2 µg/mL. For the same compound, the “Minimal Inhibitory Concentration” value ([12]; Serratia marcescens CMC 83-27) was 2 µg/mL, the “Minimal Inhibitory Concentration” value ([12]; Serratia marcescens F-35(MP)) was 2 µg/mL and the “Minimal Inhibitory Concentration” value ([13]; Staphylococcus epidermidis ATCC 12228) was 0.015 µg/mL. The “Minimal Inhibitory Concentration” value ([13]; Staphylococcus epidermidis CMC 83-133) was 0.015 µg/mL, the “Minimal Inhibitory Concentration” value [14] was 2 µg/mL and the “Minimal Inhibitory Concentration” value ([15]; Escherichia coli ATCC 25922) was 1 µg/mL. The “Minimal Inhibitory Concentration” value ([15]; Escherichia coli CMC 84-11) was 2 µg/mL and the “Minimal Inhibitory Concentration” value ([15]; Escherichia coli No. 311(MP)) was 2 µg/mL.

Reference: EP1215212A2, “Dihydro derivatives of LL-E33288 antibiotics” (priority 1987, dated 1988)
